Source: US8829002B2, “Substituted methyl amines, serotonin 5-HT6 receptor antagonists, methods for production and use thereof” (priority 2010, dated 2014)

Legend:
Format in all cases: in vivo
male mice of BALB/c line [1] = assay: Passive Avoidance of mice in the Shuttle Chamber, memory disturbed by MK-801; conditions: MK-801 0.1 mg/kg, intraperitoneally 30 min before training; FIG. 4-6
male mice of BALB/c line [2] = assay: Passive Avoidance of mice in the Shuttle Chamber, memory disturbed by Scopolamine; conditions: Scopolamine 0.3 mg/kg, intraperitoneally 30 minutes before training; FIG. 1-3
Description: Nootropic action (enhancement of memory disturbed by Scopolamine) of compounds of the general formula 1 in the test “Passive Avoidance of mice in the Shuttle Chamber”. A shuttle chamber (Ugo Basile, Italy) consisted of two sections was used. […] The sections were connected through a hole which could be overlapped by vertical door. The floor of the dark section was made of transverse metal bars on which DC current impulses could be fed. Experiments were carried out in aged male mice of BALB/c line weighing 20-25 grams.
On the first day of the experiment 30 minutes before training mice were injected intraperitoneally with physiological solution, Scopolamine (0.3 mg/kg), or Scopolamine in combination with compound 1.5(1). Each group consisted of 8 animals at least. The animals were placed in the light section, and latent period of the first entry into the dark chamber was registered. Then the vertical door was closed and the animal was punished by 0.6 mA DC current for 3 seconds. After that the animal was taken back to its home cage. In 22-24 hours the same animal was placed again in the light section of the shuttle chamber and latent period of its first entry into the dark section, the total time of its stay in the light section and the number of entries into dark section were registered. Each monitoring lasted for 5 minutes. […]

male mice of BALB/c line [3] = assay: Tail suspension test; conditions: after 4 days administration in doses of 0.1 mg/kg; 3 minutes; FIG. 13
Description: Antidepressant action of compounds of the general formula 1 in tail suspension test. Experiments were carried out in aged male mice of BALB/c line weighing 20-24 grams. In the test mice were suspended by tail with scotch tape on holder over horizontal surface at a height of about 40 cm, and for 3 minutes the total duration of complete immobility episodes which is considered to be a measure of depressively-like state was registered. Automated computerized detection of motion with video system and Any-maze program were used in test.

Mice of SHK line = assay: Prepulse inhibition of the startle response in mice (Apomorphine model); conditions: 1 mg/kg, 60 minutes before the test; FIG. 11
Description: Antipsychotic activity of compounds of the general formula 1 in “Prepulse inhibition of the startle response in mice” test. Mice of SHK line weighing about 24-30 g were used in the test. Experiments were carried out during light period of animal's diurnal. Apomorphine hydrochloride and Haloperidol were received from Sigma Chemicals Company, (USA). Apomorphine hydrochloride was dissolved in 0.1% solution of ascorbic acid prepared with sterilized water; it was introduced subcutaneously 15 minutes before the test. Haloperidol was dissolved in sterilized water using emulsifier Twin 80, it was introduced intraperitoneally 60 minutes before the test. Compound 1.5(1) was dissolved in sterilized water, it was introduced subcutaneously 60 minutes before the test. Injection volume was 10 ml/kg. Solution of ascorbic acid prepared with sterilized water and Twin 80 were injected to control group of animals.
The test instrument consisted of a chamber made of transparent plexiglass (manufacturer—Columbia Instruments Company, USA) and placed on a platform; the latter was lodged inside the sound insulating chamber. High frequency sound column transmitting acoustic stimulus was located 2 cm away from the platform. […] Level of background noise made up 65 dB. Each animal received 4 stimuli of single testing (pulse) stimulus of 50 ms duration and 105 dB or prepulsory stimulus (pre-pulse) of 20 ms duration and 85 dB, after which in 30 ms pulse stimulus of 50 ms duration and 105 dB followed. Time interval between repeated pulse or prepulse in combination with pulse stimuli made up 10 s. Inhibition of the startle in reply to prepulse-plus-pulse stimulus was calculated in percentage towards amplitude of startle in response to isolated pulse stimulus. Administration of Apomorphine, which is used in experiments on animals for modelling of psychoto-like conditions, caused reduction of prepulse inhibition of startle, which reflected the lowering of CNS ability to filter sensory stimulus. The experiment was also carried out using compounds 1.1(9) and 1.8(7).

Male rats of Vistar line = assay: Appetite Control Test; conditions: dose 10 mg/kg intraperitoneally 60 minutes before the test; 16 h food deprivation; FIG. 10
Description: Male rats of Vistar line weighing 230-360 g were housed in standard home cages with water and food available with the exception of short periods of food deprivation (16 hs) just before the Appetite test. The Appetite test was carried out in individual cages with overhead cover made of wire in the niches of which a portion of food granules was inserted. Mass of the granules was examined every 30 minutes for 3 h. On the basis of these measurements food consumption was estimated and stated in grams of food per kilogram of body mass. Placebo and compound 1.5(1) (dose 10 mg/kg) were injected intraperitoneally 60 minutes before the test. Each experimental group of animals consisted of 10 rats. Compound was dissolved in sterilized water. The injection volume was 10 ml/kg. Intact animals which were not undergone food deprivation, and animals after food deprivation, but injected with sterilized water, were used as control. Intact animals which were not undergone food deprivation and injected with sterilized water, were used as control. The experiment was carried out also using compounds 1.1(9) and 1.8(7).

male mice of BALB/c line [4] = assay: Porsolt's Forced Swim Test; conditions: after 4 days administration in doses of 1 mg/kg; last 5 minutes of 15 min test; FIG. 12
Description: Antidepressant action of antagonists of the general formula 1 in Porsolt's Forced Swim Test. The test apparatus represented a plastic vessel filled with water up to height of 18 cm at 20-22° C. Experiments were carried out in aged male mice of BALB/c line weighing 20-24 grams. An animal was placed in water and for 15 minutes the duration of immobile hanging in water—so named behavioural despaire which is considered to be a measure of depressively-like state, was registered. The last 5 minutes of the test were used for estimation. Automated computerized detection of motion with video system and Any-maze program were used in test.

male mice of BALB/c line [5] = assay: Mice Behavior in the Elevated Plus Maze; conditions: 5 minutes, FIG. 7-9
Description: Anxiolytic (tranquilizing) action of compounds of the general formula 1 in “Mice Behavior in the Elevated Plus Maze” test. Compounds 1.1(9), 1.5 (1) and 1.8(7) were employed in the experiments. Arm length was 30 cm, width—5 cm, wall hight—15 cm. Two opposite arms were closed from both sides and end surfaces with transparent plexiglass; two others—lighted and opened. A mouse was placed in the maze center, and over a period of 5 minutes the number of opened and closed arms entries and duration of opened and closed arm entries were registered. […] Being in normal state animals avoid opened arms (index of preference makes 0.2-0.3). Compounds with anxiolytic activity (tranquilizing activity) run this value up to 0.5-0.6 and more, and also decrease the number of defecations without changing overall physical activity (general number of arm entries).

Structure (SMILES): CNc1ccc(N2CCNCC2)cc1S(=O)(=O)c1cccc(F)c1 [1.1(9), methyl-[4-piperazin-1-yl-6-(3-fluorophenylsulfonyl)phenyl]-amine]
- Nootropic action (enhancement of memory disturbed by MK-801) (male mice of BALB/c line [1]): produce nootropic action
- Nootropic action (enhancement of memory disturbed by Scopolamine) (male mice of BALB/c line [2]): produce nootropic action more effectively
- Antidepressant action: total duration of complete immobility (male mice of BALB/c line [3]): diminish the duration of complete immobility of mice
- Antipsychotic activity: prepulse inhibition of startle disturbed by Apomorphine (Mice of SHK line): prevented disturbance of prepulse inhibition of startle caused by Apomorphine
- Appetite (food consumption) after food deprivation (Male rats of Vistar line): capable to prevent appetite rising in rats
- Antidepressant action: duration of immobile hanging in water (behavioural despaire) (male mice of BALB/c line [4]): diminish the given parameter
- Anxiolytic (tranquilizing) action (male mice of BALB/c line [5]): anxiolytic (tranquilizing) activity comparable to the activity of Buspirone and Lorazepam

Structure (SMILES): CNc1c(S(=O)(=O)c2ccccc2)cnc2c(N3CCNCC3)cccc12 [1.5 (1), methyl-(8-piperazin-1-yl-3-phenylsulfonylquinolin-4-yl)-amine]
- Nootropic action (enhancement of memory disturbed by MK-801) (male mice of BALB/c line [1]): produce nootropic action
- Nootropic action (enhancement of memory disturbed by Scopolamine) (male mice of BALB/c line [2]): produce nootropic action more effectively
- Antidepressant action: total duration of complete immobility (male mice of BALB/c line [3]): diminish the duration of complete immobility of mice
- Antipsychotic activity: prepulse inhibition of startle disturbed by Apomorphine (Mice of SHK line): prevented disturbance of prepulse inhibition of startle caused by Apomorphine
- Appetite (food consumption) after food deprivation (Male rats of Vistar line): capable to prevent appetite rising in rats
- Antidepressant action: duration of immobile hanging in water (behavioural despaire) (male mice of BALB/c line [4]): diminish the given parameter
- Anxiolytic (tranquilizing) action (male mice of BALB/c line [5]): anxiolytic (tranquilizing) activity comparable to the activity of Buspirone and Lorazepam

Structure (SMILES): O=C(CCCN1CCC(O)(c2ccc(Cl)cc2)CC1)c1ccc(F)cc1 [Haloperidol, reference compound]
- Antipsychotic activity: prepulse inhibition of startle disturbed by Apomorphine (Mice of SHK line): prevented disturbance of prepulse inhibition of startle caused by Apomorphine
